Measurements published in PMC5218480 (PLoS ONE, 2017).

System: MV-4-11 cells
Assay: Gene expression microarray analysis (Affymetrix PrimeView) and GSEA
Format: cell-based, human
Design: RFU PODN (11730768_x_at) / Fold change /veh PODN (11730768_x_at) / RFU LINC00158 (11744669_a_at) / Fold change /veh LINC00158 (11744669_a_at) / RFU DUSP10 (11751237_a_at) / Fold change /veh DUSP10 (11751237_a_at) / RFU ID3 (11757404_x_at) / Fold change /veh ID3 (11757404_x_at) / RFU PLEKHG5 (11737974_s_at) / Fold change /veh PLEKHG5 (11737974_s_at) / RFU LRRC4B (11730491_at) / Fold change /veh LRRC4B (11730491_at) / RFU GIMAP4 (11747438_a_at) / Fold change /veh GIMAP4 (11747438_a_at) / RFU KRT8 (11758183_x_at) / Fold change /veh KRT8 (11758183_x_at) / RFU CNN1 (11734310_a_at) / Fold change /veh CNN1 (11734310_a_at) / RFU VPS37D (11726825_at) / Fold change /veh VPS37D (11726825_at) / RFU C10orf10 (11716522_x_at) / Fold change /veh C10orf10 (11716522_x_at) / RFU KIR2DL2 /// KIR2DL4 /// KIR2DL5A /// KIR2DL5B /// KIR2DS1 /// KIR2DS2 /// KIR2DS3 /// KIR2DS4 /// KIR3DL3 /// KIR3DL3 /// KIR3DS1 (11738374_at) / Fold change /veh KIR2DL2 /// KIR2DL4 /// KIR2DL5A /// KIR2DL5B /// KIR2DS1 /// KIR2DS2 /// KIR2DS3 /// KIR2DS4 /// KIR3DL3 /// KIR3DL3 /// KIR3DS1 (11738374_at) / RFU C1QL1 (11718748_at) / Fold change /veh C1QL1 (11718748_at) / RFU TMPRSS4 (11747572_a_at) / Fold change /veh TMPRSS4 (11747572_a_at) / RFU HAMP (11756126_x_at) / Fold change /veh HAMP (11756126_x_at) / RFU RNFT2 (11725882_a_at) / Fold change /veh RNFT2 (11725882_a_at) / RFU NR4A2 (11747474_a_at) / Fold change /veh NR4A2 (11747474_a_at) / RFU ABCC12 (11746883_a_at) / Fold change /veh ABCC12 (11746883_a_at) / RFU TMEM136 (11760407_x_at) / Fold change /veh TMEM136 (11760407_x_at) / RFU CLDN22 /// WWC2 (11732394_at) / Fold change /veh CLDN22 /// WWC2 (11732394_at) / RFU HLA-DPB1 (11760878_x_at) / Fold change /veh HLA-DPB1 (11760878_x_at) / RFU SPINT1 (11716480_a_at) / Fold change /veh SPINT1 (11716480_a_at) / RFU GAP43 (11754022_s_at) / Fold change /veh GAP43 (11754022_s_at) / RFU A4GNT (11735810_at) / Fold change /veh A4GNT (11735810_at) / RFU PRB3 (11715151_x_at) / Fold change /veh PRB3 (11715151_x_at) / RFU TUBB4B (11761932_at) / Fold change /veh TUBB4B (11761932_at) / RFU CAPN14 (11732068_a_at) / Fold change /veh CAPN14 (11732068_a_at) / RFU TMCC2 (11721928_a_at) / Fold change /veh TMCC2 (11721928_a_at) / RFU IRGQ (11745062_a_at) / Fold change /veh IRGQ (11745062_a_at) / RFU FAM174B (11720279_a_at) / Fold change /veh FAM174B (11720279_a_at) / RFU TMPRSS4 (11748680_a_at) / Fold change /veh TMPRSS4 (11748680_a_at) / RFU FAM212B (11763350_a_at) / Fold change /veh FAM212B (11763350_a_at) / RFU PLEKHG5 (11743358_a_at) / Fold change /veh PLEKHG5 (11743358_a_at) / RFU ZSCAN30 (11745921_a_at) / Fold change /veh ZSCAN30 (11745921_a_at) / RFU CMKLR1 (11741424_a_at) / Fold change /veh CMKLR1 (11741424_a_at) / RFU LOC101060620 /// MAPK8IP1 (11723275_at) / Fold change /veh LOC101060620 /// MAPK8IP1 (11723275_at) / RFU SPTSSB (11747773_x_at) / Fold change /veh SPTSSB (11747773_x_at) / RFU PRSS12 (11739890_at) / Fold change /veh PRSS12 (11739890_at) / RFU BIN1 (11741810_x_at) / Fold change /veh BIN1 (11741810_x_at) / RFU WNT11 (11732464_a_at) / Fold change /veh WNT11 (11732464_a_at) / RFU C10orf10 (11716521_a_at) / Fold change /veh C10orf10 (11716521_a_at) / RFU C5orf56 (11738089_at) / Fold change /veh C5orf56 (11738089_at) / RFU CYB561 (11721691_x_at) / Fold change /veh CYB561 (11721691_x_at) / RFU ANKRD19P (11752326_a_at) / Fold change /veh ANKRD19P (11752326_a_at) / RFU OR2T12 /// OR2T33 /// OR2T8 (11738714_s_at) / Fold change /veh OR2T12 /// OR2T33 /// OR2T8 (11738714_s_at) / RFU VCAN (11748164_a_at) / Fold change /veh VCAN (11748164_a_at) / RFU JSRP1 (11732532_at) / Fold change /veh JSRP1 (11732532_at) / RFU KRTAP10-11 (11738290_x_at) / Fold change /veh KRTAP10-11 (11738290_x_at) / RFU MYO3A (11730013_a_at) / Fold change /veh MYO3A (11730013_a_at) / RFU EBF3 (11725865_a_at) / Fold change /veh EBF3 (11725865_a_at) / RFU CAMK2N1 (11719241_x_at) / Fold change /veh CAMK2N1 (11719241_x_at) / RFU C5orf56 (11738088_a_at) / Fold change /veh C5orf56 (11738088_a_at) / RFU OLFML3 (11715873_a_at) / Fold change /veh OLFML3 (11715873_a_at) / RFU LOC100653217 /// NTM (11731650_a_at) / Fold change /veh LOC100653217 /// NTM (11731650_a_at) / RFU MAPK11 (11762145_a_at) / Fold change /veh MAPK11 (11762145_a_at) / RFU FIZ1 (11724087_x_at) / Fold change /veh FIZ1 (11724087_x_at) / RFU OASL (11726364_x_at) / Fold change /veh OASL (11726364_x_at) / RFU SOX15 (11748057_x_at) / Fold change /veh SOX15 (11748057_x_at) / RFU CD79A (11719716_a_at) / Fold change /veh CD79A (11719716_a_at) / RFU HIST1H1D (11736915_at) / Fold change /veh HIST1H1D (11736915_at) / RFU CASKIN2 (11723855_a_at) / Fold change /veh CASKIN2 (11723855_a_at) / RFU LOC730098 (11760151_x_at) / Fold change /veh LOC730098 (11760151_x_at) / RFU OR4N2 (11742367_at) / Fold change /veh OR4N2 (11742367_at) / RFU PRRT2 (11749266_a_at) / Fold change /veh PRRT2 (11749266_a_at) / RFU SNX32 (11753110_a_at) / Fold change /veh SNX32 (11753110_a_at) / RFU CDHR5 (11726645_a_at) / Fold change /veh CDHR5 (11726645_a_at) / RFU RCAN1 (11760418_a_at) / Fold change /veh RCAN1 (11760418_a_at) / RFU FAM167A (11723789_a_at) / Fold change /veh FAM167A (11723789_a_at) / RFU FAM26E (11764081_at) / Fold change /veh FAM26E (11764081_at) / RFU ISYNA1 (11749810_s_at) / Fold change /veh ISYNA1 (11749810_s_at) / RFU ACY1 (11761880_at) / Fold change /veh ACY1 (11761880_at) / RFU 11764098_at / Fold change /veh 11764098_at / RFU SAMD14 (11745864_x_at) / Fold change /veh SAMD14 (11745864_x_at) / RFU NPB (11741838_a_at) / Fold change /veh NPB (11741838_a_at) / RFU TMPRSS6 (11731388_a_at) / Fold change /veh TMPRSS6 (11731388_a_at) / RFU KRTAP10-2 (11738614_at) / Fold change /veh KRTAP10-2 (11738614_at) / RFU ARHGAP8 /// PRR5-ARHGAP8 (11727945_x_at) / Fold change /veh ARHGAP8 /// PRR5-ARHGAP8 (11727945_x_at) / RFU KRTAP5-7 /// NADSYN1 (11734609_at) / Fold change /veh KRTAP5-7 /// NADSYN1 (11734609_at) / RFU RASL12 (11751679_a_at) / Fold change /veh RASL12 (11751679_a_at) / RFU CDKN2B (11736163_a_at) / Fold change /veh CDKN2B (11736163_a_at) / RFU PRF1 (11729649_at) / Fold change /veh PRF1 (11729649_at) / RFU, ZNF638 /// ZNF638-IT1 / Fold change vs veh, ZNF638 /// ZNF638-IT1 / RFU, PANK3 / Fold change vs veh, PANK3 / RFU, SH3YL1 / Fold change vs veh, SH3YL1 / RFU, ZEB2 / Fold change vs veh, ZEB2 / RFU, NRIP1 / Fold change vs veh, NRIP1 / RFU, PTTG1IP / Fold change vs veh, PTTG1IP / RFU, CAPN2 / Fold change vs veh, CAPN2 / RFU, MED14 / Fold change vs veh, MED14 / RFU, SNORA58 / Fold change vs veh, SNORA58 / RFU, C1orf63 / Fold change vs veh, C1orf63 / RFU, LRRFIP1 / Fold change vs veh, LRRFIP1 / RFU, NDUFAF7 / Fold change vs veh, NDUFAF7 / RFU, SLC12A2 / Fold change vs veh, SLC12A2 / RFU, IBTK / Fold change vs veh, IBTK / RFU, ESF1 / Fold change vs veh, ESF1 / Fold change vs veh, TMEM50B / RFU, TAOK1 / Fold change vs veh, TAOK1 / RFU, ACBD3 / Fold change vs veh, ACBD3 / RFU, TMA16 / Fold change vs veh, TMA16 / RFU, RWDD3 / Fold change vs veh, RWDD3 / RFU, BCAT1 / Fold change vs veh, BCAT1 / RFU, EDEM3 / Fold change vs veh, EDEM3 / RFU, TMEM33 / Fold change vs veh, TMEM33 / RFU, WDR75 / Fold change vs veh, WDR75 / RFU, AHCTF1 / Fold change vs veh, AHCTF1 / RFU, TFRC / Fold change vs veh, TFRC / RFU, ZDHHC17 / Fold change vs veh, ZDHHC17 / RFU, NOM1 / Fold change vs veh, NOM1 / RFU, ARL8B / Fold change vs veh, ARL8B / RFU, ZBTB11 / Fold change vs veh, ZBTB11 / RFU, TAMM41 / Fold change vs veh, TAMM41 / RFU, KIAA1704 /// LOC100996395 / Fold change vs veh, KIAA1704 /// LOC100996395 / RFU, ING1 / Fold change vs veh, ING1 / RFU, TRMT61B / Fold change vs veh, TRMT61B / RFU, FUBP3 / Fold change vs veh, FUBP3 / RFU, TP53 / Fold change vs veh, TP53 / RFU, TNKS2 / Fold change vs veh, TNKS2 / RFU, ZFP14 / Fold change vs veh, ZFP14 / RFU, ACTR2 / Fold change vs veh, ACTR2 / RFU, PPP3R1 / Fold change vs veh, PPP3R1 / RFU, PIK3R1 / Fold change vs veh, PIK3R1 / RFU, HNRNPA1 / Fold change vs veh, HNRNPA1 / RFU, RNF170 / Fold change vs veh, RNF170 / RFU, ZNF28 / Fold change vs veh, ZNF28 / RFU, RNGTT / Fold change vs veh, RNGTT / RFU, OGT / Fold change vs veh, OGT / RFU, BRD1 / Fold change vs veh, BRD1 / RFU, MARS / Fold change vs veh, MARS / RFU, ZNF655 / Fold change vs veh, ZNF655 / RFU, FAHD1 / Fold change vs veh, FAHD1 / RFU, BDP1 / Fold change vs veh, BDP1 / RFU, LRRCC1 / Fold change vs veh, LRRCC1 / RFU, ARID1A / Fold change vs veh, ARID1A / RFU, ZNF146 / Fold change vs veh, ZNF146 / RFU, ZNF330 / Fold change vs veh, ZNF330 / RFU, GPN3 / Fold change vs veh, GPN3 / RFU, C9orf123 / Fold change vs veh, C9orf123 / RFU, N4BP2L2 / Fold change vs veh, N4BP2L2 / RFU, ARFIP1 / Fold change vs veh, ARFIP1 / RFU, FAM179B / Fold change vs veh, FAM179B / RFU, BCL10 / Fold change vs veh, BCL10 / RFU, UHRF1BP1L / Fold change vs veh, UHRF1BP1L / RFU, BET1 / Fold change vs veh, BET1 / RFU, CNOT2 / Fold change vs veh, CNOT2 / RFU, ZNF268 / Fold change vs veh, ZNF268 / Fold change vs veh, ZNF507 / RFU, DGCR2 / Fold change vs veh, DGCR2 / RFU, WDSUB1 / Fold change vs veh, WDSUB1 / Fold change vs veh, HSP90B1 /// MIR3652 / RFU, ADSS / Fold change vs veh, ADSS / RFU, GK / Fold change vs veh, GK / RFU, ZNF148 / Fold change vs veh, ZNF148 / RFU, TAF9 / Fold change vs veh, TAF9 / RFU, SLC1A5 / Fold change vs veh, SLC1A5 / RFU, SLMO2 / Fold change vs veh, SLMO2 / RFU, ABCC4 / Fold change vs veh, ABCC4 / RFU, LOC101060439 /// RAP1B / Fold change vs veh, LOC101060439 /// RAP1B / RFU, RFX7 / Fold change vs veh, RFX7 / RFU, GTPBP10 / Fold change vs veh, GTPBP10 / RFU, CNEP1R1 / Fold change vs veh, CNEP1R1 / RFU, BIVM-ERCC5 /// ERCC5 / Fold change vs veh, BIVM-ERCC5 /// ERCC5 / RFU, ILF3 / Fold change vs veh, ILF3 / RFU 11762660_at / Fold change /veh 11762660_at / RFU VCAN (11757783_s_at) / Fold change /veh VCAN (11757783_s_at) / RFU DDX43 (11728927_at) / Fold change /veh DDX43 (11728927_at) / RFU KRT8 (11758188_x_at) / Fold change /veh KRT8 (11758188_x_at) / RFU NKD1 (11759106_at) / Fold change /veh NKD1 (11759106_at) / RFU SRD5A1 (11742802_a_at) / Fold change /veh SRD5A1 (11742802_a_at) / RFU TPSAB1 /// TPSB2 (11721975_s_at) / Fold change /veh TPSAB1 /// TPSB2 (11721975_s_at) / RFU GSTM3 (11746129_a_at) / Fold change /veh GSTM3 (11746129_a_at) / RFU IL23R (11737362_x_at) / Fold change /veh IL23R (11737362_x_at) / RFU TMEM51 (11727254_a_at) / Fold change /veh TMEM51 (11727254_a_at) / RFU PIWIL2 (11732686_x_at) / Fold change /veh PIWIL2 (11732686_x_at) / RFU ORM1 (11744905_x_at) / Fold change /veh ORM1 (11744905_x_at) / RFU CCDC152 (11743942_at) / Fold change /veh CCDC152 (11743942_at) / RFU ECM1 (11717891_a_at) / Fold change /veh ECM1 (11717891_a_at) / RFU IL23R (11748794_a_at) / Fold change /veh IL23R (11748794_a_at) / RFU TNFAIP8L3 (11732012_x_at) / Fold change /veh TNFAIP8L3 (11732012_x_at) / RFU MBOAT4 (11741988_at) / Fold change /veh MBOAT4 (11741988_at) / RFU 11764193_at / Fold change /veh 11764193_at / RFU TMEM53 (11763286_at) / Fold change /veh TMEM53 (11763286_at) / RFU MAGEB2 (11727129_at) / Fold change /veh MAGEB2 (11727129_at) / RFU TMEM200A (11744735_a_at) / Fold change /veh TMEM200A (11744735_a_at) / RFU CCDC152 (11751479_a_at) / Fold change /veh CCDC152 (11751479_a_at) / RFU FAM211A (11726209_a_at) / Fold change /veh FAM211A (11726209_a_at) / RFU RGS16 (11746705_a_at) / Fold change /veh RGS16 (11746705_a_at) / RFU VCAN (11755009_s_at) / Fold change /veh VCAN (11755009_s_at) / RFU RHOB (11743442_s_at) / Fold change /veh RHOB (11743442_s_at) / RFU RGS16 (11720943_a_at) / Fold change /veh RGS16 (11720943_a_at) / RFU RGS16 (11720944_at) / Fold change /veh RGS16 (11720944_at) / RFU, VPS4B / Fold change vs veh, VPS4B / RFU, CREB1 / Fold change vs veh, CREB1 / RFU, DNAJC13 / Fold change vs veh, DNAJC13 / RFU, GNAQ / Fold change vs veh, GNAQ / RFU, CDK5R1 / Fold change vs veh, CDK5R1 / RFU, ZRANB3 / Fold change vs veh, ZRANB3 / RFU, CUL4A / Fold change vs veh, CUL4A / RFU, CCNY / Fold change vs veh, CCNY / RFU, UFL1 / Fold change vs veh, UFL1 / RFU, COG3 / Fold change vs veh, COG3 / RFU, DIAPH2 / Fold change vs veh, DIAPH2 / RFU, SKA2 / Fold change vs veh, SKA2 / RFU, AFF3 / Fold change vs veh, AFF3 / RFU, LMF1 / Fold change vs veh, LMF1 / RFU, IPO11 / Fold change vs veh, IPO11 / RFU, DFFB / Fold change vs veh, DFFB / RFU, FOXP1 / Fold change vs veh, FOXP1 / RFU, CARD8 / Fold change vs veh, CARD8 / RFU, STRN3 / Fold change vs veh, STRN3 / RFU, ADK / Fold change vs veh, ADK / RFU, RASSF2 / Fold change vs veh, RASSF2 / RFU, WIPF1 / Fold change vs veh, WIPF1 / RFU, LARP1B / Fold change vs veh, LARP1B / RFU, RASA1 / Fold change vs veh, RASA1 / RFU, RB1 / Fold change vs veh, RB1 / RFU, PPFIA1 / Fold change vs veh, PPFIA1 / RFU, MAT2A / Fold change vs veh, MAT2A / RFU, CCT5 / Fold change vs veh, CCT5 / RFU, WDR92 / Fold change vs veh, WDR92 / RFU, CUX1 / Fold change vs veh, CUX1 / RFU, TTC7A / Fold change vs veh, TTC7A / RFU, TMEM135 / Fold change vs veh, TMEM135 / RFU, DEPTOR / Fold change vs veh, DEPTOR / RFU, CPM / Fold change vs veh, CPM / RFU, DNAJB6 / Fold change vs veh, DNAJB6 / RFU, CACNA2D3 / Fold change vs veh, CACNA2D3 / RFU, DTX4 / Fold change vs veh, DTX4 / RFU, TFCP2 / Fold change vs veh, TFCP2 / RFU, GMCL1 /// GMCL1P1 / Fold change vs veh, GMCL1 /// GMCL1P1 / RFU, AEBP2 / Fold change vs veh, AEBP2 / RFU, SNHG1 /// SNORD22 /// SNORD25 /// SNORD26 /// SNORD27 /// SNORD28 /// SNORD29 /// SNORD31 / Fold change vs veh, SNHG1 /// SNORD22 /// SNORD25 /// SNORD26 /// SNORD27 /// SNORD28 /// SNORD29 /// SNORD31 / Fold change (Aza/veh), C12orf56 (ProbeSet 11735607_a_at) / Fold change (ACY-1035/veh), C12orf56 (ProbeSet 11735607_a_at) / Fold change (Aza/veh), FGFR1OP (ProbeSet 11751329_s_at) / Fold change (ACY-1035/veh), FGFR1OP (ProbeSet 11751329_s_at) / Fold change (Aza/veh), VPS36 (ProbeSet 11739960_a_at) / Fold change (ACY-1035/veh), VPS36 (ProbeSet 11739960_a_at) / RFU SYPL1 (11715823_x_at) / Fold change /veh SYPL1 (11715823_x_at) / RFU IGFBP7 (11715501_s_at) / Fold change /veh IGFBP7 (11715501_s_at) / RFU REEP3 (11722064_at) / Fold change /veh REEP3 (11722064_at) / RFU IGLL1 (11728026_x_at) / Fold change /veh IGLL1 (11728026_x_at): dose or concentration left out as unconfirmed
Conditions: MV-4-11 cells, 48 hours

With `Nc1ccc(-c2cccs2)cc1NC(=O)c1ccc2c(c1)cc(C1CC1)n2CCN1CCOCC1` [ACY-1035] the “Fold change /veh CCDC152 (11743942_at)” value was 1.01.
